The values that follow come from ChEMBL document CHEMBL1909046, “DrugMatrix in vitro pharmacology data”.

One may read the IC50 as the concentration needed to halve the response being measured. Broadly, the Ki is a dissociation constant, usually derived from enzyme kinetics or from competition with a known ligand.

The first series deals with Beta-3 adrenergic receptor (Homo sapiens, UniProt P13945). The series can be described thus: DRUGMATRIX: Adrenergic beta3 radioligand binding (ligand: [125I] Cyanopindolol). The class given is cell membranes, HEK293, Membrane. Conditions: hek293; Not Active = under 50% inhibition at 10 µM.
Sequence of Beta-3 adrenergic receptor (P13945 whole entry): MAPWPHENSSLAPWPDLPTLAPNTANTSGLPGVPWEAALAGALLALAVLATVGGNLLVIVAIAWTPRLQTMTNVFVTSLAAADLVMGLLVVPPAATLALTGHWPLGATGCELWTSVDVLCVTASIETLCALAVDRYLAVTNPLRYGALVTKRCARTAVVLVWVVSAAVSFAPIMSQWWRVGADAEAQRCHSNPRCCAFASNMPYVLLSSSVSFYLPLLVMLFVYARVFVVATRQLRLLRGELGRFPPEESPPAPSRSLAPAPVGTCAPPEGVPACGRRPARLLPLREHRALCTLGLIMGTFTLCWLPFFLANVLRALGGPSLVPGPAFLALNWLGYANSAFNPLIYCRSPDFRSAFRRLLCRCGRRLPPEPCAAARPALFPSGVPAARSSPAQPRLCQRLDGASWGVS
For `CN(C)CCCN1c2ccccc2Sc2ccc(Cl)cc21` [CHLORPROMAZINE], the IC50 result is given as “Not Active”.
Same read-out and setting: the result for `CN(C)CCCN1c2ccccc2Sc2ccccc21` [PROMAZINE] reads “Not Active”.
With `CCOC(=O)C1=C(COCCN)NC(C)=C(C(=O)OC)C1c1ccccc1Cl` (stereo not drawn) [AMLODIPINE], the IC50 entry was “Not Active”.
As for `CNCCCN1c2ccccc2CCc2ccccc21` [DESIPRAMINE], the IC50 result is reported as “Not Active”.
Same read-out and setting: the result for `N=C(N)NCCN1CCCCCCC1` [GUANETHIDINE] reads “Not Active”; that for `O=C(CCCN1CC=C(n2c(=O)[nH]c3ccccc32)CC1)c1ccc(F)cc1` [DROPERIDOL], “Not Active”; that for `Nc1c(Br)cc(Br)cc1CN[C@H]1CC[C@H](O)CC1` [AMBROXOL], “Not Active”.
The same measure, in the same setting: the result for `Cc1ccc2cc3c(ccc4ccccc43)c3c2c1CC3` [3-METHYLCHOLANTHRENE] reads “Not Active”; that for `CC(NC(C)(C)C)C(=O)c1cccc(Cl)c1` (stereo not drawn) [BUPROPION], “Not Active”.
The same measure, in the same setting: the result for `CC1(C)S[C@@H]2[C@H](NC(=O)Cc3ccccc3)C(=O)N2[C@H]1C(=O)O` [PENICILLIN G] reads “Not Active”; that for `COc1cc2nc(N3CCN(C(=O)C4COc5ccccc5O4)CC3)nc(N)c2cc1OC` (stereo not drawn) [DOXAZOSIN], “Not Active”.

The target of another series is C-C chemokine receptor type 5 (Homo sapiens, UniProt P51681). It is filed as cell membranes, Membrane. The settings on record: hek293. Further: in other assays of this panel Not Active means under 50% inhibition at 10 µM.
Sequence of C-C chemokine receptor type 5 (P51681 whole entry): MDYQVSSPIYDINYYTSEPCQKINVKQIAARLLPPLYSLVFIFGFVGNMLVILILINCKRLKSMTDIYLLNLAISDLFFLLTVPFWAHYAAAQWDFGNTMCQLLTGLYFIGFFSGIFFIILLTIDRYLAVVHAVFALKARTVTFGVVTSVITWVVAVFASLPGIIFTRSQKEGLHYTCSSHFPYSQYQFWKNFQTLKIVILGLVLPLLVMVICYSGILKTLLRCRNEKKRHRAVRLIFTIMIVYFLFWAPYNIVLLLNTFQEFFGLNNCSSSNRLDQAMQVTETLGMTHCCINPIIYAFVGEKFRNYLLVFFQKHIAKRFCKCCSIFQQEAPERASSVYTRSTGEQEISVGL
In the case of `CN(C)CCCN1c2ccccc2Sc2ccc(Cl)cc21` [CHLORPROMAZINE], the IC50 result is “Not Active”.
For `CN(C)CCCN1c2ccccc2Sc2ccccc21` [PROMAZINE], the IC50 entry was “Not Active”.
The same measure, in the same setting: then `CCOC(=O)C1=C(COCCN)NC(C)=C(C(=O)OC)C1c1ccccc1Cl` (stereo not drawn) [AMLODIPINE], with “Not Active”; and `CNCCCN1c2ccccc2CCc2ccccc21` [DESIPRAMINE], with “Not Active”; and `N=C(N)NCCN1CCCCCCC1` [GUANETHIDINE], with “Not Active”.
As for `O=C(CCCN1CC=C(n2c(=O)[nH]c3ccccc32)CC1)c1ccc(F)cc1` [DROPERIDOL], the IC50 result is listed as “Not Active”.
On the same count and under the same terms, then `Nc1c(Br)cc(Br)cc1CN[C@H]1CC[C@H](O)CC1` [AMBROXOL], with “Not Active”.
Turning to `Cc1ccc2cc3c(ccc4ccccc43)c3c2c1CC3` [3-METHYLCHOLANTHRENE], the IC50 entry was “Not Active”.
Still for that read-out and setting: the result for `CC(NC(C)(C)C)C(=O)c1cccc(Cl)c1` (stereo not drawn) [BUPROPION] reads “Not Active”; that for `CC1(C)S[C@@H]2[C@H](NC(=O)Cc3ccccc3)C(=O)N2[C@H]1C(=O)O` [PENICILLIN G], “Not Active”.
Turning to `COc1cc2nc(N3CCN(C(=O)C4COc5ccccc5O4)CC3)nc(N)c2cc1OC` (stereo not drawn) [DOXAZOSIN], the IC50 result is recorded as “Not Active”.

The target of a further series is D(1A) dopamine receptor (Homo sapiens, UniProt P21728). The series can be described thus: DRUGMATRIX: Dopamine D1 radioligand binding (ligand: [3H] SCH-23390). It is filed as cell membranes, CHO, Membrane. The settings on record: Not Active = under 50% inhibition at 10 µM; read-out: IC50.
Sequence of D(1A) dopamine receptor (P21728 whole entry): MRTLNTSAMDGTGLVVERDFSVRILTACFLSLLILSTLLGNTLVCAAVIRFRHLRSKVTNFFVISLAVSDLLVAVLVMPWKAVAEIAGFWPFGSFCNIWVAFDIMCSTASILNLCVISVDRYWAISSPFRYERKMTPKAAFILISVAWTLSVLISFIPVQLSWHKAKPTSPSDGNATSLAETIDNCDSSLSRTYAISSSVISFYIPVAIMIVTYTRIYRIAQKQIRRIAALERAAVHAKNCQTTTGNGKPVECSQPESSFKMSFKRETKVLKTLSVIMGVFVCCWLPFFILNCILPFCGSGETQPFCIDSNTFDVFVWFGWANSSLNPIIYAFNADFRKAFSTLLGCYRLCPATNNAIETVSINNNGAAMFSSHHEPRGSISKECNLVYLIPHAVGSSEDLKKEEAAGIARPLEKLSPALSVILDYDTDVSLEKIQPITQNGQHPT
On to `CN(C)CCCN1c2ccccc2Sc2ccccc21` [PROMAZINE], for which the IC50 turned out to be 2460 nM.
On the same count and under the same terms, then `O=C(CCCN1CC=C(n2c(=O)[nH]c3ccccc32)CC1)c1ccc(F)cc1` [DROPERIDOL], with 1090 nM.

Still in this series, the particulars now being: Not Active = under 50% inhibition at 10 µM; read-out: Ki.
On to `CN(C)CCCN1c2ccccc2Sc2ccccc21` [PROMAZINE], for which the Ki amounted to 1230 nM.
Consider `O=C(CCCN1CC=C(n2c(=O)[nH]c3ccccc32)CC1)c1ccc(F)cc1` [DROPERIDOL], for which the Ki came out at 546 nM.

The series is the same for the next values; noted with them: cho; Not Active = under 50% inhibition at 10 µM.
With `CCOC(=O)C1=C(COCCN)NC(C)=C(C(=O)OC)C1c1ccccc1Cl` (stereo not drawn) [AMLODIPINE], the IC50 result is reported as “Not Active”.
For the compound `CNCCCN1c2ccccc2CCc2ccccc21` [DESIPRAMINE], the IC50 result was “Not Active”.
For the compound `N=C(N)NCCN1CCCCCCC1` [GUANETHIDINE], the IC50 result is “Not Active”.
Still for that read-out and setting: the result for `Nc1c(Br)cc(Br)cc1CN[C@H]1CC[C@H](O)CC1` [AMBROXOL] reads “Not Active”; that for `Cc1ccc2cc3c(ccc4ccccc43)c3c2c1CC3` [3-METHYLCHOLANTHRENE], “Not Active”.
As for `CC(NC(C)(C)C)C(=O)c1cccc(Cl)c1` (stereo not drawn) [BUPROPION], the IC50 result is “Not Active”.
Consider `CC1(C)S[C@@H]2[C@H](NC(=O)Cc3ccccc3)C(=O)N2[C@H]1C(=O)O` [PENICILLIN G], for which the IC50 entry is “Not Active”.
Same read-out and setting: then `COc1cc2nc(N3CCN(C(=O)C4COc5ccccc5O4)CC3)nc(N)c2cc1OC` (stereo not drawn) [DOXAZOSIN], with “Not Active”.

Another series deals with T1, D(4) dopamine receptor (Homo sapiens, UniProt P21917).
T1 sequence (P21917 whole entry): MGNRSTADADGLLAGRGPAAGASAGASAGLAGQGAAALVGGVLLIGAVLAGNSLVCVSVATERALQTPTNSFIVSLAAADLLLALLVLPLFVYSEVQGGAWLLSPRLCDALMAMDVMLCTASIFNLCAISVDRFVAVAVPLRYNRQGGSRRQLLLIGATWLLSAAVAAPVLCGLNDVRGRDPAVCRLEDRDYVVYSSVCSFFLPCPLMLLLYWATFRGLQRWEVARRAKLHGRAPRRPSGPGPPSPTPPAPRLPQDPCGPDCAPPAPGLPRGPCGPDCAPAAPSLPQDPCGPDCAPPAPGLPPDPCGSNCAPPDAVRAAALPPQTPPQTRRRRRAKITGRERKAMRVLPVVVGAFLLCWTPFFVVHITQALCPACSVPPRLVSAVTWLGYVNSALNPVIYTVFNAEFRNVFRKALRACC
The series is described as follows: DRUGMATRIX: Dopamine D4.2 radioligand binding (ligand: [3H] Spiperone). It is filed as cell membranes, CHO-K1, Membrane. The settings on record: cho-k1; Not Active = under 50% inhibition at 10 µM.
Consider `CN(C)CCCN1c2ccccc2Sc2ccccc21` [PROMAZINE], for which the IC50 result is on record as “Not Active”.
The same measure, in the same setting: the result for `CCOC(=O)C1=C(COCCN)NC(C)=C(C(=O)OC)C1c1ccccc1Cl` (stereo not drawn) [AMLODIPINE] reads “Not Active”; that for `CNCCCN1c2ccccc2CCc2ccccc21` [DESIPRAMINE], “Not Active”.
As for `N=C(N)NCCN1CCCCCCC1` [GUANETHIDINE], the IC50 result is reported as “Not Active”.
Still for that read-out and setting: then `O=C(CCCN1CC=C(n2c(=O)[nH]c3ccccc32)CC1)c1ccc(F)cc1` [DROPERIDOL], with “Not Active”; and `Nc1c(Br)cc(Br)cc1CN[C@H]1CC[C@H](O)CC1` [AMBROXOL], with “Not Active”.
The same measure, in the same setting: the result for `Cc1ccc2cc3c(ccc4ccccc43)c3c2c1CC3` [3-METHYLCHOLANTHRENE] reads “Not Active”.
As for `CC(NC(C)(C)C)C(=O)c1cccc(Cl)c1` (stereo not drawn) [BUPROPION], the IC50 result was “Not Active”.
The same measure, in the same setting: the result for `CC1(C)S[C@@H]2[C@H](NC(=O)Cc3ccccc3)C(=O)N2[C@H]1C(=O)O` [PENICILLIN G] reads “Not Active”; that for `COc1cc2nc(N3CCN(C(=O)C4COc5ccccc5O4)CC3)nc(N)c2cc1OC` (stereo not drawn) [DOXAZOSIN], “Not Active”.

Another series has as its target T2, Leukotriene C4 synthase (Cavia porcellus, UniProt A6XA80).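 Further: enzyme inhibition assay of leukotriene C4 synthase, using LTA4 as the substrate; in other assays of this panel Not Active means under 50% inhibition at 10 µM.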
T2 sequence (A6XA80 whole entry): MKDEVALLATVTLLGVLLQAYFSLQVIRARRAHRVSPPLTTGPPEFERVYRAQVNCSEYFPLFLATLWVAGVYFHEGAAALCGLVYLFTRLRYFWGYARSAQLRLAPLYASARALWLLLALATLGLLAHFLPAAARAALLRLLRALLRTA
The class given is tissue-based, Lung.
Details: not given
In the case of `CN(C)CCCN1c2ccccc2Sc2ccc(Cl)cc21` [CHLORPROMAZINE], the IC50 entry is on record as “Not Active”.
For the compound `CN(C)CCCN1c2ccccc2Sc2ccccc21` [PROMAZINE], the IC50 result was “Not Active”.
On to `CCOC(=O)C1=C(COCCN)NC(C)=C(C(=O)OC)C1c1ccccc1Cl` (stereo not drawn) [AMLODIPINE], for which the IC50 entry is reported as “Not Active”.
On the same count and under the same terms, the result for `CNCCCN1c2ccccc2CCc2ccccc21` [DESIPRAMINE] reads “Not Active”.
On the same count and under the same terms, the result for `N=C(N)NCCN1CCCCCCC1` [GUANETHIDINE] reads “Not Active”; that for `O=C(CCCN1CC=C(n2c(=O)[nH]c3ccccc32)CC1)c1ccc(F)cc1` [DROPERIDOL], “Not Active”.
Regarding `Nc1c(Br)cc(Br)cc1CN[C@H]1CC[C@H](O)CC1` [AMBROXOL], the IC50 result was “Not Active”.
Consider `Cc1ccc2cc3c(ccc4ccccc43)c3c2c1CC3` [3-METHYLCHOLANTHRENE], for which the IC50 result was “Not Active”.
Consider `CC(NC(C)(C)C)C(=O)c1cccc(Cl)c1` (stereo not drawn) [BUPROPION], for which the IC50 result was “Not Active”.
As for `CC1(C)S[C@@H]2[C@H](NC(=O)Cc3ccccc3)C(=O)N2[C@H]1C(=O)O` [PENICILLIN G], the IC50 result is “Not Active”.
As for `COc1cc2nc(N3CCN(C(=O)C4COc5ccccc5O4)CC3)nc(N)c2cc1OC` (stereo not drawn) [DOXAZOSIN], the IC50 entry is “Not Active”.

A further series addresses T3, Cytochrome P450 1A2 (Homo sapiens, UniProt P05177).
T3 sequence (P05177 whole entry): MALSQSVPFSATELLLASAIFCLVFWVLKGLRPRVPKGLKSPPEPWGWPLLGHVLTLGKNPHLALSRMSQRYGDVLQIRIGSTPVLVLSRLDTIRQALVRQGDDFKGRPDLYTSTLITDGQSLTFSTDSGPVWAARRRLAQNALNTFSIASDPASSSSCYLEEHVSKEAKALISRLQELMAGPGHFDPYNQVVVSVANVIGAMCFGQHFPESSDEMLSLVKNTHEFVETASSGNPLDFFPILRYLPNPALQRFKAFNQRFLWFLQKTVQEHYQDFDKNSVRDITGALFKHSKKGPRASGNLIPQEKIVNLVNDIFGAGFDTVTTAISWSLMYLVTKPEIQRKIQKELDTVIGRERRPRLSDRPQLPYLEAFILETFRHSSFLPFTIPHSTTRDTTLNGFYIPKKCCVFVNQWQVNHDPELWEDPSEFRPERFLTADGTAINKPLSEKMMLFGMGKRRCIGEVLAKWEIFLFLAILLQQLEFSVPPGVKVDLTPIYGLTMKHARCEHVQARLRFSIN
Conditions: bti-tn-5b1-4.
Consider `CCOC(=O)C1=C(COCCN)NC(C)=C(C(=O)OC)C1c1ccccc1Cl` (stereo not drawn) [AMLODIPINE], for which the IC50 result is “Not Active” and the Ki result is recorded as “Not Active”.
For the compound `CNCCCN1c2ccccc2CCc2ccccc21` [DESIPRAMINE], the IC50 entry is reported as “Not Active” and the Ki entry is “Not Active”.
For the compound `O=C(CCCN1CC=C(n2c(=O)[nH]c3ccccc32)CC1)c1ccc(F)cc1` [DROPERIDOL], the IC50 entry was “Not Active” and the Ki entry was “Not Active”.
Consider `CC(NC(C)(C)C)C(=O)c1cccc(Cl)c1` (stereo not drawn) [BUPROPION], for which the IC50 entry is “Not Active” and the Ki result is “Not Active”.
In the case of `COc1cc2nc(N3CCN(C(=O)C4COc5ccccc5O4)CC3)nc(N)c2cc1OC` (stereo not drawn) [DOXAZOSIN], the IC50 entry is reported as “Not Active” and the Ki entry is on record as “Not Active”.

For a further series, the target named is Voltage-gated inwardly rectifying potassium channel KCNH2 (Homo sapiens, UniProt Q12809). Conditions: hek293. Further: in other assays of this panel Not Active means under 50% inhibition at 10 µM.
Sequence of Voltage-gated inwardly rectifying potassium channel KCNH2 (Q12809 whole entry): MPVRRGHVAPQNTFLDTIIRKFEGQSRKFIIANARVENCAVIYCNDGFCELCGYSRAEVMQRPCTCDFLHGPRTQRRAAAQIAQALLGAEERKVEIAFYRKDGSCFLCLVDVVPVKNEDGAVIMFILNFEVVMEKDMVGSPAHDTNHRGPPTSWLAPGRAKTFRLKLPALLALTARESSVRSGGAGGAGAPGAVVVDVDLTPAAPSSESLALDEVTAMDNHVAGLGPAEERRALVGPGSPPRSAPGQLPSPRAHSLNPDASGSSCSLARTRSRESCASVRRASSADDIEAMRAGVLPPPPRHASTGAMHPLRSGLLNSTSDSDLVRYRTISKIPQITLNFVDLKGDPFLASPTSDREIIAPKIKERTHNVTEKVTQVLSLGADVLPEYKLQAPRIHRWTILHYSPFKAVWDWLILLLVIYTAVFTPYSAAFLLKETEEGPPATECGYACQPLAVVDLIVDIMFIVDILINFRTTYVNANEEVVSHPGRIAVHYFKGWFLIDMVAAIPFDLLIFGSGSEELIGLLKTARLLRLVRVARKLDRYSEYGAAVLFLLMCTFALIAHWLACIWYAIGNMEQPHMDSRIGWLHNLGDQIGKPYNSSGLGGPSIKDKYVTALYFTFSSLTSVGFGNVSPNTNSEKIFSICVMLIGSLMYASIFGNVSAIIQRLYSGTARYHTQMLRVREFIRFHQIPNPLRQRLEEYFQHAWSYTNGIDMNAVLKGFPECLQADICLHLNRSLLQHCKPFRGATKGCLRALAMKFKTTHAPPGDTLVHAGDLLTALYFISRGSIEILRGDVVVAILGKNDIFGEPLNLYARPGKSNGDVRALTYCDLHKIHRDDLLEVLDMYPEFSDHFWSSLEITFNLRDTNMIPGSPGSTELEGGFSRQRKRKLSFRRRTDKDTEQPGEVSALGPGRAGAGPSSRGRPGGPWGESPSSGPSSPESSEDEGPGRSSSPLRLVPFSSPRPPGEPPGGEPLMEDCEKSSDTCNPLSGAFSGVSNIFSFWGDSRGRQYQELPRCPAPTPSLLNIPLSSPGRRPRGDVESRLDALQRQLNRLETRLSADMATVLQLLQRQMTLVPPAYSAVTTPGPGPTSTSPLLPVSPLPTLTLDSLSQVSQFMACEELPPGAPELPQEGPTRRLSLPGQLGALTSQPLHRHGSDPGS
Regarding `CN(C)CCCN1c2ccccc2Sc2ccccc21` [PROMAZINE], the IC50 entry was “Not Active” and the Ki result is on record as “Not Active”.
For the compound `Nc1c(Br)cc(Br)cc1CN[C@H]1CC[C@H](O)CC1` [AMBROXOL], the IC50 entry was “Not Active” and the Ki result was “Not Active”.
Regarding `Cc1ccc2cc3c(ccc4ccccc43)c3c2c1CC3` [3-METHYLCHOLANTHRENE], the IC50 result is “Not Active” and the Ki result was “Not Active”.
Regarding `CC1(C)S[C@@H]2[C@H](NC(=O)Cc3ccccc3)C(=O)N2[C@H]1C(=O)O` [PENICILLIN G], the IC50 result is “Not Active” and the Ki result is recorded as “Not Active”.
